In US8735590B2, “Bicyclo-heptan-2-amines” (priority 2011, dated 2014):

How the values were obtained:
Sigma-2 receptor = biological target: T1, Sigma-2 receptor (Rattus norvegicus, UniProt Q5U3Y7); assay: NIMH-PDSP receptor binding, Sigma-2 (radioligand DTG, PC12)
T1 construct: endogenous in cells
T1 sequence (Q5U3Y7 1-176): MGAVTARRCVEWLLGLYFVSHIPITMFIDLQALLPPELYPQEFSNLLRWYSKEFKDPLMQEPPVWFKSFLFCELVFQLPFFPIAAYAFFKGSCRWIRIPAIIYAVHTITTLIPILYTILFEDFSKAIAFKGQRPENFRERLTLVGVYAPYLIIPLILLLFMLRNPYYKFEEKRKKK
Method: (§1) Compounds 5a, 5b and 5c were accepted into the National Institute of Mental Health Psychoactive Drug Screening Program, NIMH-PDSP, National Institutes of Health (NIH). Each compound was evaluated for affinity at human or rat receptors. Sites to be evaluated were chosen based on known or suspected sites of interaction with related compounds. The receptors evaluated, radio-labeled ligand, species and receptor source are depicted in Table 1. Experimental details and procedure can be found through Assay Protocol Book, National Institute of Mental Health Psychoactive Drug Screening Program, University of North Carolina at Chapel Hill.

Sigma-1 receptor = biological target: T2, Sigma-1 receptor (Rattus norvegicus, UniProt Q9R0C9); assay: NIMH-PDSP receptor binding, Sigma-1 (radioligand Pentazocine(+), brain)
T2 construct: from tissue; NIMH-PDSP)
T2 sequence (Q9R0C9 whole entry): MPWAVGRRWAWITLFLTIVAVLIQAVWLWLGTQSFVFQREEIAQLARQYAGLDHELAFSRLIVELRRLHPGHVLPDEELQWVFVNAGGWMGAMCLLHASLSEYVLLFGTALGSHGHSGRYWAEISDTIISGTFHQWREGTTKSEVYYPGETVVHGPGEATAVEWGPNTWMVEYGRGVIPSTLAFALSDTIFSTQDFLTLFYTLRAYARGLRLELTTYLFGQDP
Method: as §1

MDCK cells = assay: MTT cell viability assay in MDCK cells; assay type: cell-based, canine; conditions: 10-500 μM, FIG. 3A
Excerpt: (§2) We evaluated the effect of compounds 5a, 5b and 5c on cell viability in the neuronal cell line N2a and in the Madin-Darby canine kidney (MDCK) cell line, a blood-brain barrier model. Memantine, an NMDA glutamate receptor antagonist, was used as a negative control.
(§3) Mouse Neuro-2a (CCL-131, ATCC) and MDCK (CCL-34, ATCC) were routinely propagated using Eagle's Minimum Essential Medium (EMEM, ATCC), supplemented with 10% fetal bovine serum (FBS, ATCC) and 1% penicillin/streptomycin (Gibco) in 100 cm^2 Petri-dishes (Corning) at 37° C. in 5% CO2. Compounds 5a, 5b and 5c were obtained as salts. Stock solutions (1 mM) were prepared in double distilled water. The treatment concentrations for the compounds and the memantine control were 10, 50, 100, 200, 300, and 500 μM. Cells were allowed to attach overnight prior to treatment. H2O2 served as positive control. Working concentrations were prepared immediately prior to treatment by dilution into medium.
(§4) Cell viability was assayed using the MTT (3-(4,5-dimethylthiazole-2-yl)-2,5-diphenyltetrazoliumbromide) assay (ATCC) according to manufacturer's instructions. Cells were plated at a concentration of 13,000 to 20,000 cells/well on a 96-well round-bottom plate. MTT assay. The following determinants were optimized for each cell line: plating cell concentration; incubation time with MTT reagent, and incubation time with detergent reagent. Absorbance was recorded at 570 nm by a microtiter plate reader (VICTOR^3, PerkinElmer). This experiment was repeated on three separate occasions and results were presented as the mean absorbance±SD.

N2a cells = assay: MTT cell viability assay in N2a cells; assay type: cell-based, Mouse; conditions: 10-500 μM, FIG. 4A
Excerpt: as §2, §3, §4

MCF-7 cells = assay: MTT cell viability assay in MCF-7 breast carcinoma cells; assay type: cell-based, human; conditions: 24 hours; for effect on cell viability in MCF-7 cells: MTT assay, 10 μM to 500 μM, FIG. 6; for percent survival of untreated control cells: MTT
Method: (§5) We also evaluated the effect of compounds 5a, 5b and 5c on the human glioma cell line U-138 and the human breast carcinoma cell line MCF-7. Doxorubicin, a clinically used anticancer compound, served as a positive control.
(§6) Cell viability was assayed using the MTT assay essentially as described in Example 8. Adherent cells were trypsinized and placed into 96-well flat bottom tissue culture plates in 100 μl of supplemented Dulbecco's Modified Eagles Media (DMEM) at 10,000 cells/well for 24 hours. Cells were treated with the compounds for 24 hours at concentrations ranging from 10 μM to 500 μM. Cells were incubated with MTT reagent for 4 hours followed with MTT detergent for 24 hours. Plates were read on a computerized microplate ELISA reader at an optical density of 570 nm. The percent cytotoxicity was determined by the ratio of treated optical densities to control optical densities (OD) from one and multiplying by 100. The concentration giving 50% cytotoxicity, IC50, was determined from the dose response curves for each cell line using the GraphPad Prism software package. Each experiment was performed three separate times and the data presented are the pooled results of the three experiments.

U-138 glioma cells = assay: MTT cell viability assay in U-138 glioma cells; assay type: cell-based, human; conditions: 24 hours, 10 μM to 500 μM, FIG. 5
Method: as §5, §6

MES-induced seizures = assay: Maximal Electroshock Test (MES), tonic-clonic seizure model; assay type: in vivo; conditions: mice
Method: Compounds 5a, 5b and 5c were evaluated in for the ability to modulate seizures using the Maximal Electroshock Test (MES), a model for generalized tonic-clonic seizures that can provide an indication of a compound's ability to prevent seizure spread when all neuronal circuits in the brain are maximally active. For all tests based on MES convulsions, 60 Hz of alternating current (50 mA in mice) was delivered for […] by corneal electrodes which had been primed with an electrolyte solution containing an anesthetic agent (0.5% tetracaine HCL). Mice were tested at various intervals following doses of 30, 100 and 300 mg/kg of test compound given by i.p. injection of a volume of 0.01 mUg. An animal was considered “protected” from MES-induced seizures upon abolition of the hindlimb tonic extensor component of the seizure. Compound 5c was active at 100 and 300 mg/kg.

c1ccc(C2(NCCCN3CCCCC3)CC3CCC2C3)cc1 (racemic) [Compound 5a, (±)-2-Phenyl-N-(3-(piperidin-1-yl)propyl)bicyclo[2.2.1]heptan-2-amine]
Ki (Sigma-2 receptor): 9.6 nM
Ki (Sigma-1 receptor): > 10000 nM
effect on cell viability in MDCK cells (MDCK cells): minimal effects on cell viability
effect on cell viability in N2a cells (N2a cells): dose-dependent reduction in cell viability
effect on cell viability in MCF-7 cells (MCF-7 cells): dose-dependent reduction in cell viability

Fc1ccc(C2(NCCCN3CCCCC3)CC3CCC2C3)cc1 (racemic) [Compound 5b, (±)-2-(4-Fluorophenyl)-N-(3-(piperidin-1-yl)propyl)bicyclo[2.2.1]heptan-2-amine]
Ki (Sigma-2 receptor): 16 nM
Ki (Sigma-1 receptor): > 10000 nM
effect on cell viability in MDCK cells (MDCK cells): minimal effects on cell viability
effect on cell viability in N2a cells (N2a cells): dose-dependent reduction in cell viability
effect on cell viability in U-138 glioma cells (U-138 glioma cells): dose-dependent effect on cell viability
percent survival of untreated control cells (MCF-7 cells; 200 μM): 70%
percent survival of untreated control cells (MCF-7 cells; 300 μM): 63%
percent survival of untreated control cells (MCF-7 cells; 500 μM): 16%
effect on cell viability in MCF-7 cells (MCF-7 cells): dose-dependent reduction in cell viability

Fc1ccc(C2(NCCCOC3CCCCO3)CC3CCC2C3)cc1 (racemic) [Compound 5c, 2-(4-Fluorophenyl)-N-(3-(tetrahydro-2H-pyran-2-yloxy)propyl)bicyclo[2.2.1]heptan-2-amine]
Ki (Sigma-2 receptor): 5.5 nM
Ki (Sigma-1 receptor): > 10000 nM
effect on cell viability in MDCK cells (MDCK cells): minimal effects on cell viability
effect on cell viability in N2a cells (N2a cells): dose-dependent reduction in cell viability
effect on cell viability in MCF-7 cells (MCF-7 cells): dose-dependent reduction in cell viability
activity in MES test (protection from MES-induced seizures) (MES-induced seizures; 100 mg/kg i.p.): active
activity in MES test (protection from MES-induced seizures) (MES-induced seizures; 300 mg/kg i.p.): active
